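Exposure lasted 48 hours, with cells grown in 96-well plates and compounds tested at five concentrations. At the TGI there is no net growth.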
What was measured:
Assay in all cases: NCI-60 cell line screen, 48 h
KM12 colon = system: KM12 colon
NCI-H460 lung = system: NCI-H460 lung
SF-295 CNS = system: SF-295 CNS
T-47D breast = system: T-47D breast
HT29 colon = system: HT29 colon
SK-OV-3 ovarian = system: SK-OV-3 ovarian
LOX IMVI melanoma = system: LOX IMVI melanoma
M14 melanoma = system: M14 melanoma
SN12C renal = system: SN12C renal
MOLT-4 leukemia = system: MOLT-4 leukemia
HOP-62 NSCLC = system: HOP-62 NSCLC
MDA-N = system: MDA-N
OVCAR-8 ovarian = system: OVCAR-8 ovarian
OVCAR-3 ovarian = system: OVCAR-3 ovarian
NCI-H226 lung = system: NCI-H226 lung
BT-549 breast = system: BT-549 breast
NCI-H23 lung = system: NCI-H23 lung
IGROV1 ovarian = system: IGROV1 ovarian
NCI/ADR-RES ovarian = system: NCI/ADR-RES ovarian
UACC-257 melanoma = system: UACC-257 melanoma
COLO 205 colon = system: COLO 205 colon
HCT-116 colon = system: HCT-116 colon
SK-MEL-5 melanoma = system: SK-MEL-5 melanoma
UACC-62 melanoma = system: UACC-62 melanoma
UO-31 renal = system: UO-31 renal
SF-268 CNS = system: SF-268 CNS
SW-620 colon = system: SW-620 colon
SNB-19 CNS = system: SNB-19 CNS
HL-60(TB) leukemia = system: HL-60(TB) leukemia
EKVX NSCLC = system: EKVX NSCLC
PC-3 prostate = system: PC-3 prostate
SNB-75 CNS = system: SNB-75 CNS
CAKI-1 renal = system: CAKI-1 renal
OVCAR-5 ovarian = system: OVCAR-5 ovarian
A549 NSCLC = system: A549 NSCLC
SK-MEL-2 melanoma = system: SK-MEL-2 melanoma
SF-539 CNS = system: SF-539 CNS
786-0 renal = system: 786-0 renal
SR leukemia = system: SR leukemia
RXF 393 renal = system: RXF 393 renal
CCRF-CEM leukemia = system: CCRF-CEM leukemia
HS 578T breast = system: HS 578T breast
HOP-92 NSCLC = system: HOP-92 NSCLC
HCT-15 colon = system: HCT-15 colon
SK-MEL-28 melanoma = system: SK-MEL-28 melanoma
A498 renal = system: A498 renal
MDA-MB-231 breast = system: MDA-MB-231 breast
DU-145 prostate = system: DU-145 prostate
U251 CNS = system: U251 CNS
TK-10 renal = system: TK-10 renal
K-562 leukemia = system: K-562 leukemia
ACHN renal = system: ACHN renal
HCC-2998 colon = system: HCC-2998 colon
MCF7 breast = system: MCF7 breast
MALME-3M melanoma = system: MALME-3M melanoma
OVCAR-4 ovarian = system: OVCAR-4 ovarian
MDA-MB-435 = system: MDA-MB-435
NCI-H522 lung = system: NCI-H522 lung
RPMI-8226 leukemia = system: RPMI-8226 leukemia

SMILES: Nc1ccc2c(=O)cc(-c3cccs3)[nH]c2n1
- TGI (KM12 colon): > 100 µM
- TGI (NCI-H460 lung): > 100 µM
- TGI (SF-295 CNS): > 53.4 µM
- TGI (T-47D breast): > 100 µM
- TGI (HT29 colon): > 72 µM
- TGI (SK-OV-3 ovarian): > 100 µM
- TGI (LOX IMVI melanoma): > 45.4 µM
- TGI (M14 melanoma): > 54.8 µM
- TGI (SN12C renal): > 59.7 µM
- TGI (MOLT-4 leukemia): > 35.5 µM
- TGI (HOP-62 NSCLC): > 100 µM
- TGI (MDA-N): 1730 nM
- TGI (OVCAR-8 ovarian): > 60.5 µM
- TGI (OVCAR-3 ovarian): > 100 µM
- TGI (NCI-H226 lung): 8.62 µM
- TGI (BT-549 breast): > 100 µM
- TGI (NCI-H23 lung): > 26.3 µM
- TGI (IGROV1 ovarian): > 100 µM
- TGI (NCI/ADR-RES ovarian): 5.5 µM
- TGI (UACC-257 melanoma): > 100 µM
- TGI (COLO 205 colon): 6.95 µM
- TGI (HCT-116 colon): > 50.8 µM
- TGI (SK-MEL-5 melanoma): 21 µM
- TGI (UACC-62 melanoma): > 100 µM
- TGI (UO-31 renal): 26.6 µM
- TGI (SF-268 CNS): > 100 µM
- TGI (SW-620 colon): > 100 µM
- TGI (SNB-19 CNS): > 100 µM
- TGI (HL-60(TB) leukemia): 671 nM
- TGI (EKVX NSCLC): > 100 µM
- TGI (PC-3 prostate): > 28.3 µM
- TGI (SNB-75 CNS): > 28.5 µM
- TGI (CAKI-1 renal): > 100 µM
- TGI (OVCAR-5 ovarian): > 100 µM
- TGI (A549 NSCLC): > 37.5 µM
- TGI (SK-MEL-2 melanoma): > 100 µM
- TGI (SF-539 CNS): 6.17 µM
- TGI (786-0 renal): > 100 µM
- TGI (SR leukemia): > 34 µM
- TGI (RXF 393 renal): > 100 µM
- TGI (CCRF-CEM leukemia): > 44.9 µM
- TGI (HS 578T breast): > 24.9 µM
- TGI (HOP-92 NSCLC): > 100 µM
- TGI (HCT-15 colon): > 60.4 µM
- TGI (SK-MEL-28 melanoma): > 100 µM
- TGI (A498 renal): > 100 µM
- TGI (MDA-MB-231 breast): > 100 µM
- TGI (DU-145 prostate): > 100 µM
- TGI (U251 CNS): > 45.6 µM
- TGI (TK-10 renal): > 100 µM
- TGI (K-562 leukemia): > 100 µM
- TGI (ACHN renal): > 100 µM
- TGI (HCC-2998 colon): 27.5 µM
- TGI (MCF7 breast): > 100 µM
- TGI (MALME-3M melanoma): > 100 µM
- TGI (OVCAR-4 ovarian): > 100 µM

SMILES: COc1cccc2c1CCc1c(-c3ccc(F)cc3)cc(-c3ccc4ccccc4n3)nc1-2
- TGI (KM12 colon): > 100 µM
- TGI (NCI-H460 lung): > 100 µM
- TGI (SF-295 CNS): > 100 µM
- TGI (T-47D breast): > 100 µM
- TGI (MDA-MB-435): > 100 µM
- TGI (HT29 colon): > 100 µM
- TGI (SK-OV-3 ovarian): > 100 µM
- TGI (LOX IMVI melanoma): > 100 µM
- TGI (M14 melanoma): > 100 µM
- TGI (MOLT-4 leukemia): > 100 µM
- TGI (HOP-62 NSCLC): > 100 µM
- TGI (MDA-N): > 100000 nM
- TGI (OVCAR-8 ovarian): > 100 µM
- TGI (OVCAR-3 ovarian): > 100 µM
- TGI (NCI-H226 lung): > 100 µM
- TGI (BT-549 breast): > 100 µM
- TGI (NCI-H23 lung): > 100 µM
- TGI (NCI-H522 lung): > 100 µM
- TGI (IGROV1 ovarian): > 100 µM
- TGI (NCI/ADR-RES ovarian): > 100 µM
- TGI (UACC-257 melanoma): > 100 µM
- TGI (COLO 205 colon): > 100 µM
- TGI (HCT-116 colon): > 100 µM
- TGI (SK-MEL-5 melanoma): > 100 µM
- TGI (UACC-62 melanoma): > 100 µM
- TGI (UO-31 renal): > 100 µM
- TGI (SF-268 CNS): > 100 µM
- TGI (SW-620 colon): > 100 µM
- TGI (SNB-19 CNS): > 100 µM
- TGI (EKVX NSCLC): > 100 µM
- TGI (PC-3 prostate): > 100 µM
- TGI (SNB-75 CNS): > 100 µM
- TGI (CAKI-1 renal): > 100 µM
- TGI (OVCAR-5 ovarian): > 100 µM
- TGI (A549 NSCLC): > 100 µM
- TGI (SK-MEL-2 melanoma): > 100 µM
- TGI (SF-539 CNS): > 100 µM
- TGI (786-0 renal): > 100 µM
- TGI (SR leukemia): > 100 µM
- TGI (RXF 393 renal): > 100 µM
- TGI (CCRF-CEM leukemia): > 100 µM
- TGI (HS 578T breast): > 100 µM
- TGI (HOP-92 NSCLC): > 100 µM
- TGI (HCT-15 colon): > 100 µM
- TGI (A498 renal): > 100 µM
- TGI (RPMI-8226 leukemia): > 100 µM
- TGI (MDA-MB-231 breast): > 100 µM
- TGI (U251 CNS): > 100 µM
- TGI (TK-10 renal): > 100 µM
- TGI (K-562 leukemia): > 100 µM
- TGI (ACHN renal): > 100 µM
- TGI (MCF7 breast): > 100 µM
- TGI (MALME-3M melanoma): > 100 µM
- TGI (OVCAR-4 ovarian): > 100 µM

From PubChem BioAssay (NCI)
